Source: the supplement of paper PMC10307832

What was measured:
Test in all cases: relative viability (nuclei count vs DMSO), 5 days (fraction); higher = more cells survive
[1] = compound: CCN(CCO)CCCC(C)Nc1ccnc2cc(Cl)ccc12 [Hydroxychloroquine] + CC(=O)c1c(C)c2cnc(Nc3ccc(N4CCNCC4)cn3)nc2n(C2CCCC2)c1=O [Palbociclib] (partner 0.5 µM)
How it was run: (§1)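 Relative viability was taken as the ratio of nuclei in treated wells to nuclei in vehicle wells. Lung cancer cell lines in 1536-well plates received compounds by pin tool one day after seeding, either one drug alone or a fixed anchor-drug dose plus five library-drug doses (not always all listed) in √10 steps. Nuclei were counted on 4× images after 5 days of treatment, and values are medians of duplicate plates.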

[2] = compound: CCN(CCO)CCCC(C)Nc1ccnc2cc(Cl)ccc12 [Hydroxychloroquine] + C[C@@H](Oc1cc(-c2cnn(C3CCNCC3)c2)cnc1N)c1c(Cl)ccc(F)c1Cl [Crizotinib] (partner 1 µM)
How it was run: as §1

[3] = compound: CCN(CCO)CCCC(C)Nc1ccnc2cc(Cl)ccc12 [Hydroxychloroquine] + NC(=O)Nc1cc(-c2cccc(F)c2)sc1C(=O)N[C@H]1CCCNC1 [AZD7762] (partner 0.2 µM)
How it was run: as §1

[4] = compound: CCN(CCO)CCCC(C)Nc1ccnc2cc(Cl)ccc12 [Hydroxychloroquine] + O=C(CCCCCCC(=O)Nc1ccccc1)NO [Vorinostat] (partner 1 µM)
How it was run: as §1

| Cell Line | relative viability ([1]; first compound 0.5 µM) | relative viability ([1]; first compound 1.581 µM) | relative viability ([1]; first compound 5 µM) | relative viability ([1]; first compound 15.81 µM) | relative viability ([1]; first compound 50 µM) | relative viability ([2]; first compound 0.5 µM) | relative viability ([2]; first compound 1.581 µM) | relative viability ([2]; first compound 5 µM) | relative viability ([2]; first compound 15.81 µM) | relative viability ([2]; first compound 50 µM) | relative viability ([3]; first compound 0.5 µM) | relative viability ([3]; first compound 1.581 µM) | relative viability ([3]; first compound 5 µM) | relative viability ([3]; first compound 15.81 µM) | relative viability ([3]; first compound 50 µM) | relative viability ([4]; first compound 0.5 µM) | relative viability ([4]; first compound 1.581 µM) | relative viability ([4]; first compound 5 µM) | relative viability ([4]; first compound 15.81 µM) | relative viability ([4]; first compound 50 µM) |
| --- | --- | --- | --- | --- | --- | --- | --- | --- | --- | --- | --- | --- | --- | --- | --- | --- | --- | --- | --- | --- |
| HOP-62 | 0.486 | 0.429 | 0.444 | 0.487 | 0.548 | 0.954 | 0.836 | 0.843 | 1.05 | 0.744 | 0.448 | 0.968 | 0.661 | 0.626 | 0.732 | 0.584 | 0.628 | 0.573 | 0.574 | 0.69 |
| LC-2-ad | 0.454 | 0.454 | 0.486 | 0.555 | 0.476 | 0.44 | 0.426 |  | 0.473 | 0.547 | 0.898 | 0.822 | 0.842 | 0.832 | 0.85 | 0.707 | 0.691 | 0.694 | 0.702 | 0.697 |
| LCLC-97TM1 | 0.223 | 0.227 | 0.313 | 0.275 | 0.21 | 0.379 | 0.259 | 0.4 | 0.449 | 0.481 | 0.373 | 0.499 | 0.245 | 0.119 | 0.363 | 0.778 | 0.742 | 0.772 | 0.766 | 0.797 |
| LCLC-103H | 0.498 | 0.496 | 0.524 | 0.461 | 0.469 | 1.03 | 1.01 | 0.951 | 1.04 | 1.14 | 0.855 | 0.672 | 0.76 | 0.743 | 0.827 | 0.859 | 0.718 | 0.752 | 0.829 | 0.793 |
| LK-2 | 0.884 | 0.832 | 0.762 | 0.809 | 0.697 | 0.246 |  | 0.198 | 0.181 | 0.197 | 0.424 | 0.334 | 0.447 | 0.411 | 0.312 | 0.318 | 0.274 | 0.248 | 0.299 | 0.294 |
| LOU-NH91 | 0.534 | 0.562 | 0.5 | 0.55 | 0.531 | 0.726 | 0.727 | 0.742 | 0.739 | 0.741 | 0.762 | 0.646 | 0.776 | 0.744 | 0.828 | 0.89 | 0.72 | 0.88 | 0.933 | 0.868 |
| LU99A | 0.356 | 0.383 | 0.377 | 0.444 | 0.473 | 0.566 | 0.533 | 0.593 | 0.606 | 0.66 | 0.427 | 0.367 | 0.533 | 0.393 | 0.317 | 0.559 | 0.474 | 0.465 | 0.435 | 0.507 |
| LXF-289 | 0.577 | 0.588 | 0.656 | 0.575 | 0.602 | 0.838 | 0.773 | 0.803 | 0.822 | 0.853 | 1.01 | 1.08 | 1.05 | 1.06 | 1.17 | 0.767 | 0.795 | 0.723 | 0.757 | 0.709 |
| NCI-H23 | 0.499 | 0.487 | 0.548 | 0.464 | 0.477 | 0.473 | 0.537 | 0.579 | 0.446 | 0.603 | 0.263 | 0.355 | 0.21 | 0.271 | 0.248 | 0.674 | 0.566 | 0.56 | 0.626 | 0.67 |
| NCI-H322M | 0.484 | 0.43 | 0.431 | 0.482 | 0.457 | 0.996 | 0.922 | 0.894 | 0.927 | 1.02 | 0.681 | 0.433 | 0.447 | 0.487 | 0.482 | 0.849 | 0.877 | 0.83 | 0.839 | 0.991 |
| NCI-H358 | 0.13 | 0.126 | 0.137 | 0.122 | 0.137 | 0.515 | 0.579 | 0.587 | 0.516 | 0.591 | 0.498 | 0.566 | 0.534 | 0.436 | 0.442 | 0.695 | 0.731 | 0.72 | 0.673 | 0.655 |
| NCI-H441 | 0.217 | 0.187 | 0.185 | 0.192 | 0.204 | 0.624 | 0.824 | 0.92 | 0.734 | 0.663 | 1.16 | 1.47 | 1.25 | 1.5 | 1.11 | 0.734 | 0.677 | 0.781 | 1.07 | 0.693 |
| NCI-H460 | 0.129 | 0.148 | 0.149 | 0.115 | 0.227 | 0.985 | 0.91 | 0.938 | 0.745 | 0.952 | 0.727 | 0.645 | 0.63 | 0.749 | 0.615 | 0.733 | 0.865 | 0.812 | 0.815 | 0.83 |
| NCI-H647 | 0.418 | 0.439 | 0.41 | 0.282 | 0.366 | 1.23 | 1.07 | 1.21 | 1.12 | 1.33 | 0.542 | 0.455 | 0.423 | 0.252 | 0.373 | 0.662 | 0.704 | 0.603 | 0.616 | 0.612 |
| NCI-H650 | 0.341 | 0.288 | 0.3 | 0.35 | 0.311 | 0.787 | 0.63 |  | 0.675 | 0.835 | 1.07 | 1.05 | 0.924 | 0.956 | 0.986 | 0.478 | 0.432 | 0.397 | 0.42 | 0.478 |
| NCI-H727 | 0.643 | 0.552 | 0.561 | 0.661 | 0.688 | 0.839 | 0.815 | 0.804 | 0.908 | 0.885 | 0.845 | 0.698 | 0.655 | 0.599 | 0.523 | 1.07 | 1.22 | 1.23 | 0.969 | 1.33 |
| NCI-H838 | 0.237 | 0.197 | 0.242 | 0.194 | 0.22 | 0.805 | 0.8 | 0.823 | 0.829 | 0.974 | 0.963 | 0.943 | 0.916 | 0.968 | 1.03 | 0.721 | 0.667 | 0.803 | 0.716 | 0.721 |
